In US20190142974A1, “METHODS AND COMPOSITIONS FOR ATTENUATING ANTI-VIRAL TRANSFER VECTOR IGM RESPONSES” (Selecta Biosciences, Inc., priority 2017, published 2019):

System: AAV
Assay: Serum AAV IgG, ELISA
Format: in vivo, C57BL/6 female mice
Conditions: Example 12, FIG. 24B
Procedure: Same serum samples from Example 3 were also tested for AAV IgG measured by ELISA along the same lines as IgM with the exception of goat anti-mouse IgG specific-HRP being used.

`C=CC(=O)N1CCC[C@@H](n2nc(-c3ccc(Oc4ccccc4)cc3)c3c(N)ncnc32)C1` [ibrutinib] was tested, and the “animals converting to AAV IgG-positive by d22” value was 10/10.
